The source of these data is patent US20130085157A1, “ARYLSUBSTITUTED THIAZOLOTRIAZOLES AND THIAZOLOIMIDAZOLES” (priority 2011, published 2013).

SMILES strings stand for the structures. Some results are limits rather than exact numbers.

The target in this assay is T1, human TGR5 bile acid receptor (Homo sapiens, UniProt Q8TDU6).
T1 construct: The full length TGR5 gene is inserted into pCMV6 vector DNA (Origene); expressed in transfected cells
T1 sequence (Q8TDU6 1-330): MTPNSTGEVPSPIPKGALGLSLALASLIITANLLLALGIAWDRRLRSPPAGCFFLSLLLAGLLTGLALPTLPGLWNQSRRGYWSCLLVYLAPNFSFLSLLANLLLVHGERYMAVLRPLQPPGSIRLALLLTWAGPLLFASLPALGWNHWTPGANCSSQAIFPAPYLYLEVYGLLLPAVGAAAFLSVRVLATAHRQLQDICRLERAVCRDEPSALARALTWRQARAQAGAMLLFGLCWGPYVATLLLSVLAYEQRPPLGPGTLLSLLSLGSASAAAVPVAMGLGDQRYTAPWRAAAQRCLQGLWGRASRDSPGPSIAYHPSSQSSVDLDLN
Description: TGR5 receptor activation, HTRF cAMP assay in 293/humanTGR5 cells. The class given is cell-based. Particulars: activation of 293/humanTGR5 (HEK 293) cells measured by cAMP levels, 30 minutes at 37° C., relative to vehicle and 50 μM of Compound 7. As for the experimental part: Transformed E. coli stocks containing cDNA for the full length human TGR5 bile acid receptor (IMAGE clone #5221127) are obtained from Open Biosystems. Cultures are grown in LB broth, and cDNA is purified using Qiagen mini-prep columns. The full length TGR5 gene is inserted into pCMV6 vector DNA (Origene) by ligation followed by transformation in competent E. coli. Ampicillin-resistant clones are isolated and vector DNA containing the TGR5 gene is verified by DNA sequence analysis (Sequetech). The resulting plasmid is transfected into HEK 293 cells using FuGene 6 transfection reagent and the transfected cells are grown in the presence of 1 mg/mL G418 selection antibiotic. A number of individual G418 resistant colonies are isolated by using 150 μL cloning cylinders. The resulting 293/humanTGR5 expressing cell lines are then screened for responsiveness to the natural ligand lithocholic acid. A single clone is chosen for expansion and use for screening, this clone reproducibly responds to known receptor agonists for over 30 passages. The 293/humanTGR5 cells are maintained in DMEM/F12 media supplemented with 10% fetal bovine serum (Hyclone) and 15 mM HEPES buffer (Invitrogen). Cells are passaged twice weekly and maintained at densities to assure logarithmic growth. For use in cAMP assays, cells are trypsinzied, centrifuged, and resuspended in DMEM/F12 media supplemented with 0.5% FBA and 15 mM HEPES buffer. These cells are adjusted to a density which allows distribution of 25,000 cells in 20 μL of volume to each well of a half-area 96-well plate (Greiner Bio-One). 20 μL of test compounds diluted to a 2× concentration in DMEM/F12 media with 0.5% FBS are then added to the 96-well plates, and the plates are then incubated for 30 minutes at 37° C. in a 5% CO2 atmosphere. Levels of resulting cAMP for each treatment condition are then determined by use of an HTRF cAMP assay (CisBio) following the manufactures directions. The resulting data is analyzed using IDBX XLfit software and IC50 determinations are made for each test compound by comparing cAMP levels to vehicle controls (unstimulated) and TGR5 agonist-activated cells (50 μM of Compound 7, a reported TGR5 receptor agonist, J. Med. Chem., 2009, 52 (24), pp 7962-7965). Specificity for human TGR5 agonist activity is confirmed for compounds of interest by testing them against cell lines over expressing the mouse TGR5 receptor, human GPR119 receptor, and parent cell lines followed by measurement of resulting cAMP levels. Assay responsiveness is controlled for by measuring cAMP levels induced by 50 μM Forskolin in cells, a known adenylyl […] activator.
Background: Time-resolved FRET reads energy transfer from a long-lived donor to a nearby acceptor.
For `CN(C(=O)C(C)(C)C)c1cc(F)ccc1-c1csc2nnc(SCc3ccc4c(c3)OCO4)n12` [Example 59], the EC50 lay within 5 to 50 µM.
For `c1ccc(CCSc2nnc3scc(-c4ccccc4)n23)cc1` [Example 30], the 50% effective concentration (EC50) was in the range of 5 to 50 µM.
The compound `Cc1ccc(N(C)C(=O)c2sc3nnc(SCc4ccc5c(c4)OCO5)n3c2-c2ccccc2)cc1Cl` [Example 3, 3-(1,3-Benzodioxol-5-ylmethylsulfanyl)-N-(3-chloro-4-methyl-phenyl)-N-methyl-5-phenyl-thiazolo[2,3-c][1,2,4]triazole-6-carboxamide] had an EC50 of 0.5 to 5 µM.
Turning to `Cc1cc(-c2csc3nnc(SCc4ccc5c(c4)OCO5)n23)ccc1F` [Example 115], the EC50 was below 0.5 µM.
For `Cc1ccc(N(C)c2nnc3scc(-c4cc(Cl)ccc4Cl)n23)cc1Cl` [Example 120] the value was 0.5 to 5 µM; for `C=C(c1ccc(OC)c(OC)c1)c1sc2nnc(SCc3c(F)cccc3Cl)n2c1-c1ccccc1` [Example 12, 3-[(2-chloro-6-fluoro-phenyl)methylsulfanyl]-6-[1-(3,4-dimethoxyphenyl)vinyl]-5-phenyl-thiazolo[2,3-c][1,2,4]triazole], 5 to 50 µM; for `Fc1ccc(-c2c(-c3c(F)cccc3Cl)sc3nnc(Cc4ccc5c(c4)OCO5)n23)cc1` [Example 97], 5 to 50 µM.
Take `COc1ccc(C(C)(C)c2sc3nnc(SCc4c(F)cccc4Cl)n3c2-c2ccccc2)cc1OC` [Example 11, 3-[(2-chloro-6-fluoro-phenyl)methylsulfanyl]-6-[1-(3,4-dimethoxyphenyl)-1-methyl-ethyl]-5-phenyl-thiazolo[2,3-c][1,2,4]triazole]: the EC50 fell in the range of 0.5 to 5 µM.
Compound `c1ccc(-c2csc3nnc(SCc4ccc5cnccc5c4)n23)cc1` [Example 43] showed an EC50 of 5 to 50 µM.
The compound `COc1cc(Br)c(Cc2sc3nnc(SCc4c(F)cccc4Cl)n3c2-c2ccc(F)c(Cl)c2)cc1OC` [Example 119] gave an EC50 of 0.5 to 5 µM.
For the compound `COc1ccc(CSc2nnc3sc(-c4c(F)cccc4Cl)c(-c4ccc(F)cc4)n23)cc1F` [Example 94], the EC50 fell in the range of 0.5 to 5 µM.
Take `COc1ccc(Cc2sc3nnc(SCc4ccc(F)cc4F)n3c2-c2ccc(F)c(Cl)c2)cc1Cl` [Example 106]: the EC50 fell in the range of 0.5 to 5 µM.
`Cc1ccc(-c2csc3nnc(SCc4c(F)cccc4Cl)n23)cc1` [Example 109] gave a 50% effective concentration (EC50) below 0.5 µM.
`COc1ccc(Cc2sc3nnc(SCc4c(F)cccc4Cl)n3c2-c2ccc(F)c(Cl)c2)cc1Cl` [Example 100] had an EC50 of 0.5 to 5 µM.
Compound `Brc1cccc(-c2csc3nnc(SCc4ccc5c(c4)OCO5)n23)c1` [Example 69] returned a 50% effective concentration (EC50) below 0.5 µM.
Compound `Fc1cccc(Cl)c1CSc1nnc2scc(-c3cccc(Cl)c3)n12` [Example 117] came in with a half-maximal effective concentration (EC50) of 0.5 to 5 µM.
Regarding `COc1cc(Cl)c(Cc2sc3nnc(SCc4ccc5c(c4)OCO5)n3c2-c2cccc(Cl)c2)cc1OC` [Example 127], the EC50 is 0.5 to 5 µM.
`Cc1ccc(Nc2nnc3scc(-c4cc(Cl)ccc4Cl)n23)cc1Cl` [Example 14, N-(3-chloro-4-methylphenyl)-5-(2,5-dichlorophenyl)thiazolo[2,3-c][1,2,4]triazol-3-amine] showed an EC50 of 0.5 to 5 µM.
For `Clc1ccc(CSc2nnc3scc(-c4ccccc4)n23)cc1` [Example 26] the value was 0.5 to 5 µM; for `Cc1ccc(N(C)C(=O)c2sc3nncn3c2-c2ccccc2)cc1Cl` [Example 1, N-(3-chloro-4-methyl-phenyl)-N-methyl-5-phenyl-thiazolo[2,3-c][1,2,4]triazole-6-carboxamide], 0.5 to 5 µM; for `c1ccc(-c2csc3nnc(SCc4ccc5c(c4)OCO5)n23)cc1` [Example 6, 3-(1,3-Benzodioxol-5-ylmethylsulfanyl)-5-phenyl-thiazolo[2,3-c][1,2,4]triazole], 5 to 50 µM.
On to `c1ccc2cc(-c3csc4nnc(SCc5ccc6c(c5)OCO6)n34)ccc2c1` [Example 131], for which the EC50 is 5 to 50 µM.
In turn, `c1cc(-c2csc3nnc(SCc4ccc5c(c4)OCO5)n23)cc(C2CC2)c1` [Example 80] returned an EC50 of 0.5 to 5 µM.
As to `c1ccc(-c2csc3nnc(Oc4ccc5c(c4)OCO5)n23)cc1` [Example 46], the EC50 is 5 to 50 µM.
Take `CC(c1ccccc1)c1sc2nnc(SCc3c(F)cccc3Cl)n2c1-c1ccc(F)cc1` (stereo not shown) [Example 98]: the EC50 was 5 to 50 µM.
For `Cc1ccc(N(C)C(=O)c2sc3nnc(C)n3c2-c2ccccc2)cc1Cl` [Example 2, N-(3-chloro-4-methyl-phenyl)-N,3-dimethyl-5-phenyl-thiazolo[2,3-c][1,2,4]triazole-6-carboxamide] the value was 0.5 to 5 µM; for `COc1ccc(Cc2sc3nnc(SCc4c(F)cccc4Cl)n3c2-c2ccc(F)cc2)cc1OC` [Example 83], 0.5 to 5 µM; for `OC(c1ccc(F)cc1)c1sc2nnc(SCc3ccc4c(c3)OCO4)n2c1-c1ccccc1` (stereo not shown) [Example 7, [3-(1,3-Benzodioxol-5-ylmethylsulfanyl)-5-phenyl-thiazolo[2,3-c][1,2,4]triazol-6-yl]-(4-fluorophenyl)methanol], 5 to 50 µM.
Turning to `COc1ccc(Cc2sc3nnc(SCc4c(F)cccc4Cl)n3c2-c2cccc(Cl)c2)cc1OC` [Example 17, 3-[(2-Chloro-6-fluoro-phenyl)methylsulfanyl]-5-(3-chlorophenyl)-6-[(3,4-dimethoxyphenyl)methyl]thiazolo[2,3-c][1,2,4]triazole], the concentration for a half-maximal effect (EC50) lay in the range of 0.5 to 5 µM.
Consider `Fc1ccc(-c2csc3nnc(SCc4ccc5c(c4)OCO5)n23)cc1Br` [Example 53], for which the half-maximal effective concentration (EC50) is below 0.5 µM.
For `Cc1ccc(-c2csc3nnc(SCc4c(F)cccc4Cl)n23)cc1Cl` [Example 86] the value was 0.5 to 5 µM; for `c1ccc(-c2csc3nnc(CCc4ccc5c(c4)OCO5)n23)cc1` [Example 4, 3-[2-(1,3-benzodioxol-5-yl)ethyl]-5-phenyl-thiazolo[2,3-c][1,2,4]triazole], 5 to 50 µM; for `COc1cc(-c2csc3nnc(SCc4ccc5c(c4)OCO5)n23)ccc1F` [Example 50], 0.5 to 5 µM.
On to `COc1ccc(Cc2sc3cnc(SCc4c(F)cccc4Cl)n3c2-c2cccc(Cl)c2)cc1OC` [Example 18, 5-[(2-chloro-6-fluoro-phenyl)methylsulfanyl]-3-(3-chlorophenyl)-2-[(3,4-dimethoxyphenyl)methyl]imidazo[5,1-b]thiazole], for which the EC50 is below 0.5 µM.
For the compound `COc1ccc(-c2csc3nnc(SCc4ccc5c(c4)OCO5)n23)c(Cl)c1` [Example 65], the EC50 lay in the range of 0.5 to 5 µM.
The compound `Fc1cccc(Cl)c1CSc1ncc2scc(-c3cccc(Cl)c3)n12` [Example 15, 5-[(2-chloro-6-fluoro-phenyl)methylsulfanyl]-3-(3-chlorophenyl)imidazo[5,1-b]thiazole] gave a half-maximal effective concentration (EC50) below 0.5 µM.
Regarding `COc1cc(Br)c(Cc2sc3nnc(SCc4c(F)cccc4Cl)n3c2-c2ccc(F)c(Cl)c2)c(Br)c1OC` [Example 112], the concentration giving a half-maximal response (EC50) fell in the range of 0.5 to 5 µM.
Take `CCc1sc2nnc(SCc3ccc4c(c3)OCO4)n2c1-c1ccccc1` [Example 48]: the EC50 lay in the range of 5 to 50 µM.
`Fc1ccc(-c2csc3nnc(SCc4ccc5c(c4)OCO5)n23)cc1` [Example 24] gave an EC50 of 5 to 50 µM.
For `COC(=O)c1cccc(CSc2nnc3scc(-c4cccc(Br)c4)n23)c1` [Example 66] the value was 0.5 to 5 µM; for `Cc1nnc2sc(SCc3c(F)cccc3Cl)c(-c3ccccc3)n12` [Example 8, 6-[(2-Chloro-6-fluoro-phenyl)methylsulfanyl]-3-methyl-5-phenyl-thiazolo[2,3-c][1,2,4]triazole], 5 to 50 µM.
For `Clc1cccc(-c2csc3nnc(SCc4ccc5c(c4)OCO5)n23)c1Cl` [Example 76] the value was 0.5 to 5 µM.
Consider `Fc1cccc(Cl)c1CSc1cnc2scc(-c3cccc(Cl)c3)n12` [Example 138, 5-[(2-chloro-6-fluoro-phenyl)methylsulfanyl]-3-(3-chlorophenyl)imidazo[2,1-b]thiazole], for which the 50% effective concentration (EC50) was in the range of 0.5 to 5 µM.

By EC50 is commonly meant the concentration giving half of the maximal effect.
